According to patent publication US11923581B2, “Aqueous redox flow battery electrolytes with high chemical and electrochemical stability, high water solubility, low membrane permeability” (President and Fellows of Harvard College, priority 2016, dated 2024):

Legend:
[1] = Cyclic voltammetry, reduction potential; assay type: physicochemical
physchem = conditions: 25 °C, thermodynamic from solid
[2] = cited from earlier work
Solubility in water = conditions: 25° C.

SMILES: C[N+](C)(C)CCC[c-]1cccc1.C[N+](C)(C)CCC[c-]1cccc1.[Cl-].[Cl-].[Fe+2] [Compound 2, bis((3-trimethylammonio)propyl)ferrocene dichloride]
- reduction potential vs. Ag/AgCl reference electrode ([1]; pH 7): +0.21 V
- reduction potential vs. RHE ([1]; pH 7): +0.83 V

SMILES: C[N+](C)(C)CCCNC(=O)[c-]1cccc1.[Cl-].[Fe+2].c1cc[cH-]c1 [Compound 7, N-((3-trimethylammonio)propyl) ferrocenecarboxamide chloride]
- reduction potential higher than that of 2 ([1]; pH 7): ~240 mV
- reduction potential vs SHE ([1]; pH 7): +0.63 V
- reduction potential vs. RHE ([1]; pH 7): +1.04 V

SMILES: C[N+](C)(C)CCC[n+]1ccc(-c2cc[n+](CCC[N+](C)(C)C)cc2)cc1 [Compound 1, (3-trimethylammonio)propyl viologen tetrachloride]
- solubility (physchem; pH 7, water): 2000 mM
- solubility (physchem; water): 2000 mM
- reduction potential vs. Ag/AgCl reference electrode ([1]; pH 7): −0.55 V
- reduction potential vs. RHE ([1]; pH 7): +0.07 V

SMILES: C[n+]1ccc(-c2cc[n+](C)cc2)cc1 [MV dichloride, methyl viologen]
- solubility in water at pH 7 [2]: 3.0 M

SMILES: C[N+](C)(C)C[c-]1cccc1.F[B-](F)(F)F.[Fe+2].c1cc[cH-]c1 [Compound 3]
- water solubility (Solubility in water): ~400 mM
- reduction potential vs. RHE ([1]; pH 7, converted from the measured potential): +1.05 V
- reduction potential vs. Ag/AgCl reference electrode ([1]; pH 7, cyclic voltammetry): +0.43 V
